From the NIST ThermoML archive (doi:10.1016/j.tca.2012.07.004)

Assay: xn = mol fraction of the nth substance listed
Conditions: 101 kPa, Liquid; for mass density: Vibrating tube method; for viscosity: Vibrating wire viscometry; for speed of sound: ultrasonic interferometer

CC(=O)[O-].C[NH+](C)C [trimethylammonium acetate] + CN1CCCC1=O
Conditions | mass density [kg/m3] | speed of sound [m/s] | viscosity [mPa·s]
298.15 K, x1 = 0.0182 | 1028.63 | 1571 | 2.04
298.15 K, x1 = 0.0369 | 1030.53 | 1575 | 2.28
298.15 K, x1 = 0.0987 | 1036.87 | 1578 | 3.04
298.15 K, x1 = 0.1401 | 1039.96 | 1581 | 3.42
298.15 K, x1 = 0.2032 | 1043.65 | 1586 | 3.89
298.15 K, x1 = 0.3166 | 1047.89 | 1584 | 4.5
298.15 K, x1 = 0.3637 | 1048.9 | 1582 | 4.56
298.15 K, x1 = 0.4353 | 1049.74 | 1580 | 4.61
298.15 K, x1 = 0.5625 | 1049.92 | 1571 | 4.52
298.15 K, x1 = 0.6999 | 1049.74 | 1559 | 4.23
298.15 K, x1 = 0.8435 | 1050.4 | 1550 | 3.7
298.15 K, x1 = 0.936 | 1051.83 | 1544 | 3.27
298.15 K, x1 = 0.9675 | 1052.54 | 1543 | 3.02
298.15 K, x1 = 1 | 1053.85 | 1544 | 2.76
303.15 K, x1 = 0.0182 | 1026.1 | 1556 | 1.64
303.15 K, x1 = 0.0369 | 1027.79 | 1560 | 1.86
303.15 K, x1 = 0.0987 | 1033.52 | 1565 | 2.56
303.15 K, x1 = 0.1401 | 1036.31 | 1568 | 3
303.15 K, x1 = 0.2032 | 1039.76 | 1572 | 3.48
303.15 K, x1 = 0.3166 | 1043.59 | 1569 | 4.05
303.15 K, x1 = 0.3637 | 1044.52 | 1566 | 4.11
303.15 K, x1 = 0.4353 | 1045.32 | 1564 | 4.16
303.15 K, x1 = 0.5625 | 1045.54 | 1551 | 4.01
303.15 K, x1 = 0.6999 | 1045.69 | 1537 | 3.64
303.15 K, x1 = 0.8435 | 1046.54 | 1524 | 3.14
303.15 K, x1 = 0.936 | 1048.22 | 1517 | 2.78
303.15 K, x1 = 0.9675 | 1048.93 | 1515 | 2.52
303.15 K, x1 = 1 | 1049.87 | 1514 | 2.37
308.15 K, x1 = 0.0182 | 1021.24 | 1534 | 1.43
308.15 K, x1 = 0.0369 | 1023.08 | 1540 | 1.57
308.15 K, x1 = 0.0987 | 1028.14 | 1546 | 2.23
308.15 K, x1 = 0.1401 | 1030.79 | 1550 | 2.64
308.15 K, x1 = 0.2032 | 1034.23 | 1555 | 3.14
308.15 K, x1 = 0.3166 | 1037.97 | 1554 | 3.7
308.15 K, x1 = 0.3637 | 1039.05 | 1553 | 3.76
308.15 K, x1 = 0.4353 | 1039.98 | 1551 | 3.77
308.15 K, x1 = 0.5625 | 1040.55 | 1540 | 3.52
308.15 K, x1 = 0.6999 | 1040.85 | 1530 | 3.12
308.15 K, x1 = 0.8435 | 1042 | 1519 | 2.64
308.15 K, x1 = 0.936 | 1043.81 | 1512 | 2.34
308.15 K, x1 = 0.9675 | 1044.69 | 1511 | 2.16
308.15 K, x1 = 1 | 1045.81 | 1508 | 2.06
313.15 K, x1 = 0.0182 | 1016.53 | 1528 | 1.52
313.15 K, x1 = 0.0369 | 1017.98 | 1533 | 1.38
313.15 K, x1 = 0.0987 | 1023.07 | 1538 | 1.96
313.15 K, x1 = 0.1401 | 1025.67 | 1542 | 2.39
313.15 K, x1 = 0.2032 | 1029.09 | 1546 | 2.81
313.15 K, x1 = 0.3166 | 1032.81 | 1544 | 3.37
313.15 K, x1 = 0.3637 | 1033.73 | 1543 | 3.41
313.15 K, x1 = 0.4353 | 1034.71 | 1540 | 3.42
313.15 K, x1 = 0.5625 | 1035.21 | 1528 | 3.16
313.15 K, x1 = 0.6999 | 1035.7 | 1517 | 2.74
313.15 K, x1 = 0.8435 | 1037.36 | 1508 | 2.25
313.15 K, x1 = 0.936 | 1039.26 | 1502 | 2.04
313.15 K, x1 = 0.9675 | 1040.35 | 1496 | 1.92
313.15 K, x1 = 1 | 1041.7 | 1490 | 1.83
